Assay [1] has as its target human GLP-1 receptor (hGLP-1R) (Homo sapiens, UniProt P43220). As to the kind of experiment: cAMP production (HTRF) in CHO cells expressing hGLP-1R. In kind it is cell-based. The arrangement: expressed in transfected cells. The conditions noted are these: for EC50: Table 7, peptides modified at position 20, cAMP in CHO hGLP-1R cells, geometric mean, read-out: hGLP-1R EC50; for % Relative Potency Ratio: Table 7, % GLP-1R activity relative to GLP-1 / % GlucR activity relative to glucagon. The method in brief: (§1)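 Read-out: HTRF cAMP (anti-cAMP cryptate donor, cAMP-d2 acceptor in conjugate/lysis buffer), converted to % Delta F and fitted by 4-parameter logistic for EC50. Cell densities were 1×10^5 cells/mL (hGLP-1R) or 2×10^5 cells/mL (hGCGR). Stimulation lasted 30 min at room temperature.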
On the technique in general: Cyclic AMP is a second messenger, typically raised through Gs and lowered through Gi signalling.

Assay [2] has as its target human glucagon receptor (hGCGR) (Homo sapiens, UniProt P47871). As to the kind of experiment: cAMP production (HTRF) in CHO cells expressing hGCGR. In kind it is cell-based. The arrangement: expressed in transfected cells. The conditions noted are these: Table 7, peptides modified at position 20; cAMP in CHO hGCGR cells; geometric mean; read-out: hGluc-R EC50. The method in brief: as §1

Starred links: 1 amine or outer side, 2 acyl side, 3 side chain; linkers in the order of their positions; H or OH if unused. Non-standard residues stand in square brackets, D forms with d. Residues, ends and D or L forms follow the SMILES beside them. Groups on a side chain read outwards from the residue. *: point of attachment. C20 diacid = O=C(O)CCCCCCCCCCCCCCCCCCC(=O)*; C18 diacid = O=C(O)CCCCCCCCCCCCCCCCC(=O)*; γGlu = O=C(O)[C@H](CCC(=O)[*:2])N[*:1]; αMeF = C[C@](N)(Cc1ccccc1)C(=O)O; AEEA = NCCOCCOCC(=O)O; Aib = CC(C)(N)C(=O)O

As usually defined, the EC50 is the concentration giving half of the maximal effect.

Chain of human GLP-1 receptor (hGLP-1R) (P43220 24-463): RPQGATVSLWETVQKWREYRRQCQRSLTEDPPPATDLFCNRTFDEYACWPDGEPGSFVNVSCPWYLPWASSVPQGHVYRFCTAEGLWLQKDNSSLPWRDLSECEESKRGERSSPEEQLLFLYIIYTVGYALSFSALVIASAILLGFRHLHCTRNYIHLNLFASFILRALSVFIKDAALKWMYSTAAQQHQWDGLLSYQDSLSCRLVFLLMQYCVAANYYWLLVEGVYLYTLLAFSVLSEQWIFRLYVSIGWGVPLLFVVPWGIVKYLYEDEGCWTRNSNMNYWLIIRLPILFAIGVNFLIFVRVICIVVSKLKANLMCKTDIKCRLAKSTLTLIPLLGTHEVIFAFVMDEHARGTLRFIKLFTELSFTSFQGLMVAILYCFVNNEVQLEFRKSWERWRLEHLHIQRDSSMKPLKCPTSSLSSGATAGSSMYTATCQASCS
Chain of human glucagon receptor (hGCGR) (P47871 26-477): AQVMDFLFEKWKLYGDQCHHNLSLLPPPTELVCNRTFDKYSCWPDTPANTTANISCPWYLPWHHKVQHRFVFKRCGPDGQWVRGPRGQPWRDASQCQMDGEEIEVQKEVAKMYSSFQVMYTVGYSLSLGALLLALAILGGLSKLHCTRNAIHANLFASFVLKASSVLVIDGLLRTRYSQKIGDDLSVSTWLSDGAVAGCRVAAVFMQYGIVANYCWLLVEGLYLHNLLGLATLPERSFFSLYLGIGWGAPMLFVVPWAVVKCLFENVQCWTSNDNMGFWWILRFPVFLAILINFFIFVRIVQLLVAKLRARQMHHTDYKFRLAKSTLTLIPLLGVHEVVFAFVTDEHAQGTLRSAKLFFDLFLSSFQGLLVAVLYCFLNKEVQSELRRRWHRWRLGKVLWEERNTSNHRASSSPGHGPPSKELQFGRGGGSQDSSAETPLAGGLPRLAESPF

Regarding `CC[C@H](C)[C@H](NC(=O)[C@H](Cc1c[nH]c2ccccc12)NC(=O)[C@H](CCC(=O)O)NC(=O)[C@@H](NC(=O)[C@H](Cc1ccccc1)NC(=O)[C@H](CC(=O)O)NC(=O)[C@H](CCCCNC(=O)COCCOCCNC(=O)COCCOCCNC(=O)CC[C@H](NC(=O)CCCCCCCCCCCCCCCCC(=O)O)C(=O)O)NC(=O)[C@H](C)NC(=O)[C@H](C)NC(=O)[C@H](CCC(N)=O)NC(=O)[C@H](CO)NC(=O)[C@H](CC(=O)O)NC(=O)[C@H](CC(C)C)NC(=O)[C@](C)(Cc1ccccc1)NC(=O)[C@H](CCCCN)NC(=O)[C@H](CO)NC(=O)[C@@H](NC(=O)[C@H](CC(=O)O)NC(=O)[C@H](CO)NC(=O)[C@@H](NC(=O)[C@](C)(Cc1ccccc1)NC(=O)[C@H](CO)NC(=O)CNC(=O)[C@H](Cc1c[nH]cn1)NC(=O)C(C)(C)NC(=O)[C@@H](N)Cc1c[nH]cn1)[C@@H](C)O)C(C)C)C(C)C)C(=O)N[C@@H](C)C(=O)N[C@@H](CC(N)=O)C(=O)N[C@H](C(N)=O)[C@@H](C)O` [Peptide 209] (H-H[Aib]HGS[αMeF]TSDVSK[αMeF]LDSQAAK([AEEA-AEEA-γGlu-C18 diacid])DFVEWIANT-NH2), in assay [1], the EC50 came to 0.127 nM and the “% Relative Potency Ratio” value came to 0.7. The concentration for a half-maximal effect (EC50) in assay [2] was determined as 0.0426 nM.
As for `CC[C@H](C)[C@H](NC(=O)[C@H](Cc1c[nH]c2ccccc12)NC(=O)[C@H](CCC(=O)O)NC(=O)[C@@H](NC(=O)[C@H](Cc1ccccc1)NC(=O)[C@H](CC(=O)O)NC(=O)[C@H](CCCCNC(=O)COCCOCCNC(=O)COCCOCCNC(=O)CC[C@H](NC(=O)CC[C@H](NC(=O)CCCCCCCCCCCCCCCCC(=O)O)C(=O)O)C(=O)O)NC(=O)[C@H](C)NC(=O)[C@H](C)NC(=O)[C@H](CCC(N)=O)NC(=O)[C@H](CO)NC(=O)[C@H](CC(=O)O)NC(=O)[C@H](CC(C)C)NC(=O)[C@](C)(Cc1ccccc1)NC(=O)[C@H](CCCCN)NC(=O)[C@H](CO)NC(=O)[C@@H](NC(=O)[C@H](CC(=O)O)NC(=O)[C@H](CO)NC(=O)[C@@H](NC(=O)[C@](C)(Cc1ccccc1)NC(=O)[C@H](CO)NC(=O)CNC(=O)[C@H](Cc1c[nH]cn1)NC(=O)C(C)(C)NC(=O)[C@@H](N)Cc1c[nH]cn1)[C@@H](C)O)C(C)C)C(C)C)C(=O)N[C@@H](C)C(=O)N[C@@H](CC(N)=O)C(=O)N[C@H](C(N)=O)[C@@H](C)O` [Peptide 210] (H-H[Aib]HGS[αMeF]TSDVSK[αMeF]LDSQAAK([AEEA-AEEA-γGlu-γGlu-C18 diacid])DFVEWIANT-NH2), in assay [1], the EC50 worked out at 0.156 nM and the “% Relative Potency Ratio” value amounted to 1.2. Further, the half-maximal effective concentration (EC50) in assay [2] was found to be 0.0937 nM.
For `CC[C@H](C)[C@H](NC(=O)[C@H](Cc1c[nH]c2ccccc12)NC(=O)[C@H](CCC(N)=O)NC(=O)[C@@H](NC(=O)[C@H](Cc1ccccc1)NC(=O)[C@H](CC(=O)O)NC(=O)[C@H](CCCCNC(=O)COCCOCCNC(=O)COCCOCCNC(=O)CC[C@H](NC(=O)CC[C@H](NC(=O)CCCCCCCCCCCCCCCCCCC(=O)O)C(=O)O)C(=O)O)NC(=O)[C@H](C)NC(=O)[C@H](C)NC(=O)[C@H](CCCNC(=N)N)NC(=O)[C@H](CO)NC(=O)[C@H](CC(=O)O)NC(=O)[C@H](CC(C)C)NC(=O)[C@](C)(Cc1ccccc1)NC(=O)[C@H](CCCCN)NC(=O)[C@H](CO)NC(=O)[C@@H](NC(=O)[C@H](CC(=O)O)NC(=O)[C@H](CO)NC(=O)[C@@H](NC(=O)[C@](C)(Cc1ccccc1)NC(=O)[C@H](CO)NC(=O)CNC(=O)[C@H](Cc1c[nH]cn1)NC(=O)C(C)(C)NC(=O)[C@@H](N)Cc1c[nH]cn1)[C@@H](C)O)C(C)C)C(C)C)C(=O)N[C@@H](C)C(=O)N[C@@H](CC(N)=O)C(=O)N[C@H](C(N)=O)[C@@H](C)O` [Peptide 211] (H-H[Aib]HGS[αMeF]TSDVSK[αMeF]LDSRAAK([AEEA-AEEA-γGlu-γGlu-C20 diacid])DFVQWIANT-NH2), in that order: 0.167 nM, 0.7 and 0.0609 nM.
For `CC[C@H](C)[C@H](NC(=O)[C@H](Cc1c[nH]c2ccccc12)NC(=O)[C@H](CCC(=O)O)NC(=O)[C@@H](NC(=O)[C@H](Cc1ccccc1)NC(=O)[C@H](CC(=O)O)NC(=O)[C@H](CCCCNC(=O)COCCOCCNC(=O)COCCOCCNC(=O)CC[C@H](NC(=O)CCCCCCCCCCCCCCCCCCC(=O)O)C(=O)O)NC(=O)[C@H](C)NC(=O)[C@H](C)NC(=O)[C@H](CCCNC(=N)N)NC(=O)[C@H](CO)NC(=O)[C@H](CC(=O)O)NC(=O)[C@H](CC(C)C)NC(=O)[C@](C)(Cc1ccccc1)NC(=O)[C@H](CCCCN)NC(=O)[C@H](CO)NC(=O)[C@@H](NC(=O)[C@H](CC(=O)O)NC(=O)[C@H](CO)NC(=O)[C@@H](NC(=O)[C@](C)(Cc1ccccc1)NC(=O)[C@H](CO)NC(=O)CNC(=O)[C@H](Cc1c[nH]cn1)NC(=O)C(C)(C)NC(=O)[C@@H](N)Cc1c[nH]cn1)[C@@H](C)O)C(C)C)C(C)C)C(=O)N[C@@H](C)C(=O)N[C@@H](CC(N)=O)C(=O)N[C@H](C(N)=O)[C@@H](C)O` [Peptide 212] (H-H[Aib]HGS[αMeF]TSDVSK[αMeF]LDSRAAK([AEEA-AEEA-γGlu-C20 diacid])DFVEWIANT-NH2), in that order: 0.532 nM, 0.4 and 0.0975 nM.
On to `CC[C@H](C)[C@H](NC(=O)[C@H](Cc1c[nH]c2ccccc12)NC(=O)[C@H](CCC(=O)O)NC(=O)[C@@H](NC(=O)[C@H](Cc1ccccc1)NC(=O)[C@H](CC(=O)O)NC(=O)[C@H](CCCCNC(=O)COCCOCCNC(=O)COCCOCCNC(=O)CC[C@H](NC(=O)CC[C@H](NC(=O)CCCCCCCCCCCCCCCCCCC(=O)O)C(=O)O)C(=O)O)NC(=O)[C@H](C)NC(=O)[C@H](C)NC(=O)[C@H](CCCNC(=N)N)NC(=O)[C@H](CO)NC(=O)[C@H](CC(=O)O)NC(=O)[C@H](CC(C)C)NC(=O)[C@](C)(Cc1ccccc1)NC(=O)[C@H](CCCCN)NC(=O)[C@H](CO)NC(=O)[C@@H](NC(=O)[C@H](CC(=O)O)NC(=O)[C@H](CO)NC(=O)[C@@H](NC(=O)[C@](C)(Cc1ccccc1)NC(=O)[C@H](CO)NC(=O)CNC(=O)[C@H](Cc1c[nH]cn1)NC(=O)C(C)(C)NC(=O)[C@@H](N)Cc1c[nH]cn1)[C@@H](C)O)C(C)C)C(C)C)C(=O)N[C@@H](C)C(=O)N[C@@H](CC(N)=O)C(=O)N[C@H](C(N)=O)[C@@H](C)O` [Peptide 213] (H-H[Aib]HGS[αMeF]TSDVSK[αMeF]LDSRAAK([AEEA-AEEA-γGlu-γGlu-C20 diacid])DFVEWIANT-NH2; N-terminus assumed), for which, in assay [1], the concentration giving a half-maximal response (EC50) was 0.534 nM and the “% Relative Potency Ratio” value is reported as 0.5. Moreover, in assay [2], the EC50 was found to be 0.141 nM.
Turning to `CC[C@H](C)[C@H](NC(=O)[C@H](Cc1c[nH]c2ccccc12)NC(=O)[C@H](CCC(N)=O)NC(=O)[C@@H](NC(=O)[C@H](Cc1ccccc1)NC(=O)[C@H](CC(=O)O)NC(=O)[C@H](CCCCNC(=O)COCCOCCNC(=O)COCCOCCNC(=O)CC[C@H](NC(=O)CCCCCCCCCCCCCCCCCCC(=O)O)C(=O)O)NC(=O)[C@H](C)NC(=O)[C@H](C)NC(=O)[C@H](CCCNC(=N)N)NC(=O)[C@H](CO)NC(=O)[C@H](CC(=O)O)NC(=O)[C@H](CC(C)C)NC(=O)[C@](C)(Cc1ccccc1)NC(=O)[C@H](CCCCN)NC(=O)[C@H](CO)NC(=O)[C@@H](NC(=O)[C@H](CC(=O)O)NC(=O)[C@H](CO)NC(=O)[C@@H](NC(=O)[C@](C)(Cc1ccccc1)NC(=O)[C@H](CO)NC(=O)CNC(=O)[C@H](Cc1c[nH]cn1)NC(=O)C(C)(C)NC(=O)[C@@H](N)Cc1c[nH]cn1)[C@@H](C)O)C(C)C)C(C)C)C(=O)N[C@@H](C)C(=O)N[C@@H](CC(N)=O)C(=O)N[C@H](C(N)=O)[C@@H](C)O` [Peptide 214] (H-H[Aib]HGS[αMeF]TSDVSK[αMeF]LDSRAAK([AEEA-AEEA-γGlu-C20 diacid])DFVQWIANT-NH2), in assay [1], the EC50 is 2.34 nM and the “% Relative Potency Ratio” value is given as 0.7. The EC50 in assay [2] was 0.81 nM.
The like results for `CC[C@H](C)[C@H](NC(=O)[C@H](Cc1c[nH]c2ccccc12)NC(=O)[C@H](CCC(N)=O)NC(=O)[C@@H](NC(=O)[C@](C)(Cc1ccccc1)NC(=O)[C@H](CC(=O)O)NC(=O)[C@H](CCCCNC(=O)COCCOCCNC(=O)COCCOCCNC(=O)CC[C@H](NC(=O)CCCCCCCCCCCCCCCCCCC(=O)O)C(=O)O)NC(=O)[C@H](C)NC(=O)[C@H](C)NC(=O)[C@H](CCCNC(=N)N)NC(=O)[C@H](CO)NC(=O)[C@H](CC(=O)O)NC(=O)[C@H](CC(C)C)NC(=O)[C@](C)(Cc1ccccc1)NC(=O)[C@H](CCCCN)NC(=O)[C@H](CO)NC(=O)[C@@H](NC(=O)[C@H](CC(=O)O)NC(=O)[C@H](CO)NC(=O)[C@@H](NC(=O)[C@](C)(Cc1ccccc1)NC(=O)[C@H](CO)NC(=O)CNC(=O)[C@H](Cc1c[nH]cn1)NC(=O)C(C)(C)NC(=O)[C@@H](N)Cc1c[nH]cn1)[C@@H](C)O)C(C)C)C(C)C)C(=O)N[C@@H](C)C(=O)N[C@@H](CC(N)=O)C(=O)N[C@H](C(N)=O)[C@@H](C)O` [Peptide 215] (H-H[Aib]HGS[αMeF]TSDVSK[αMeF]LDSRAAK([AEEA-AEEA-γGlu-C20 diacid])D[αMeF]VQWIANT-NH2; N-terminus assumed) were, in that order, 7.62 nM, 0.7 and 2.61 nM.
